Where “and” joins values, the source holds several entries; their conditions need not be identical. Identical values can stand only once.

The text below walks through data of patent publication US5059588A, “Methods and compositions for healing bone using Gly His Lys: Copper” (ProCyte Corporation, Incorporated, priority 1989, dated 1991).

Experiment [1] has as its system drill holes in bone (femur) of male rats. Briefly: Healing of drill-hole defects in the femur of rats. It is filed as in vivo, rat. The following applies: for bone healing activity: general statement. How it is done:
In one representative study, male rats weighing approximately 350-400 grams received drill holes in bone which were then treated with pharmaceutical preparations containing GHL-Cu.
More specifically, on the day of surgery (Day 0), animals were sedated with pentobarbital (I.P., 35 mg/kg). The hair was clipped from the left rear upper limb, and the area was prepped in a sterile fashion. Using a #15 blade, a 2 cm incision was made on the lateral surface of the upper limb following the approximate location of the femur, extending from just below the crest of the ilium. The tensor fasciae latae muscle was exposed and incised parallel to the muscle filers (1 cm incision). Careful retraction of the muscle provided exposure of the vastus lateralis muscle overlying the femur. The approach to the femur was completed upon incision and retraction of this muscle. This provided exposure of 1 cm of the lateral and ventral surfaces of bone. Using a periosteal elevator, the surface of the femur was cleaned of periosteum. At this point, very little bleeding had been encountered. Using a Dremel drill fitted with a 1 mm diameter cutting burr, a hole was drilled in the femur to a depth of approximately 0.75 mm. Little bleeding was evident except in the rare case of marrow penetration. The area was irrigated and hemostasis achieved. At this point, a pharmaceutical preparation of the compositions of the present invention was applied to the exposed bone surface. The muscle was closed in layers using chromic suture, and the skin was closed with stainless steel wound clips. Structure and function of the muscles was intact following surgery, and very little, if any, morbidity was associated with the surgical procedure.
After 7 to 14 days, the animals were terminated and their femurs removed. Evidence of bone growth was determined from gross visualization of the defect using a Wild dissecting scope, and from subsequent histological preparations (decalcification, paraffin embedding, and Trichrome staining).
Results at 12 to 14 days following surgery utilizing pharmaceutical preparation B to accelerate the bone healing process are summarized in Table 2. Controls consisted of bones without treatment.
In a second study, defects were created in bones and pharmaceutical preparation E applied to the exposed bone in the same manner as described in Example 9.

In experiment [2] the test system is bone models implanted in rats. Description: Granulation tissue formation in stainless steel chambers (bone healing model) implanted subcutaneously in rats. The following applies: for PROTEIN: relative to BSA. It is filed as in vivo, rat. The text has this:
The subcutaneous implantation of stainless steel chambers in rats provides a reproducible models to monitor the healing of bone. This model in many ways mimics the early events in the formation of granulation tissue found in fractures or other types of injury to bone. Implantation of these chambers triggers a series of responses which reflect the series of phases involved in bone healing--fibrin clot formation, infiltration of white cells, collagen synthesis, and new blood vessel formation.
The assay involves the implantation of two stainless steel chambers (1×2.5 cm cylindrical 312 SS, 20 mesh, with Teflon end caps) on each side of the dorsal midline of rats. After one week to allow for encapsulation of the chambers, one chamber on each rat was injected with 0.2 ml of a 10 mg/ml solution of GHL-Cu and the other with the same volume of saline. Injections are made on days […], 7, 8, 12, 13, 15 and 19. The chambers were removed on day 15 and day 29.
The chambers were lyophilized and the interior contents removed for biochemical analysis. The biochemical parameters examined include the total dry weight, protein content, angiogenesis (alkaline phosphatase activity), and collagen content (hydroxyproline content after acid hydrolysis). Significant increases were found in all the biochemical parameters tested when compounds of the present invention were used as compared to controls.
Protein content was determined by the method of Lowry (Lowry et al., J. Biol. Chem. 193:265-275, 1951) using Bovine Serum Albumin (BSA) as a standard. Angiogenesis was determined by measuring the amount of alkaline phosphatase activity using p-nitrophenyl phosphate as a substrate (Lyles et al., C. Biochem. Pharm. 33:2569-2574, 1984). The collagen content was determined by acid hydrolysis and a colorimetric assay for hydroxyproline (Bergman et al., R. Clin. Chim. Acta 27:347-349, 1970), an amino acid specific for collagen.
The total protein is expressed as mg protein (relative to BSA) per chamber, the angiogenesis as alkaline phosphatase (AP) units per chamber, where one unit=the amount of homogenate which causes an increase in absorbance at 405 nm of 1.0 per min., and the hydroxyproline (HP, Collagen Content) as μg HP per chamber. Comparison with control data is made by determining the ratio, treated/control (T/C) for each parameter.

Consider “L-lysyl-L-histidyl-glycine:copper(II) [LHG-Cu]”, for which the bone healing activity entry in experiment [1] is “have shown bone healing activity”.
On to “glycyl-L-histidyl-L-lysine:copper(II) [GHL-Cu]”, for which, in experiment [2] (day 15), the “ANGIOGENESIS (alkaline phosphatase)” value is listed as 6.5 ± 3.2 AP units/chamber, the “COLLAGEN (hydroxyproline)” value was found to be 243 ± 215 μg HP/chamber and the PROTEIN turned out to be 69 ± 32 mg/chamber. Further, the “DRY WEIGHT” value in experiment [2] (day 15, chamber injected with 0.2 ml of 10 mg/ml solution) came out at 92 ± 46 mg. In addition, in experiment [2] (day 15, ratio treated/control), the T/C dry weight was ~ 2 and 2.2; the T/C protein is ~ 2 and 2.0. For the same substance, in experiment [2] (day 29), the “ANGIOGENESIS (alkaline phosphatase)” value was 20.3 ± 10.0 AP units/chamber, the “COLLAGEN (hydroxyproline)” value is recorded as 1849 ± 546 μg HP/chamber, the “DRY WEIGHT” value worked out at 165 ± 38 mg and the PROTEIN was found to be 77 ± 19 mg/chamber. Also, in experiment [2] (day 29, ratio treated/control), the T/C angiogenesis is recorded as 3.2, the T/C collagen was 1.9, the T/C dry weight stood at 1.7 and the T/C protein turned out to be 1.4. In addition, the “histology, periosteal layer (FIG. 6)” value in experiment [1] (X40, Trichrome stain, versus placebo) is “better developed and continuous”. The “histology, new bone (FIG. 7)” value in experiment [1] (X 63, Trichrome stain, versus placebo) was “increase in density of new bone”. In experiment [1] (day 7, versus placebo gel), the “gross appearance of bone defect (FIG. 5)” value is “influx of bony calcification and granulation tissue”. The bone healing activity entry in experiment [1] is listed as “have shown bone healing activity”.
